One assay deals with P. aeruginosa PA14. Kind of assay: MIC, broth microdilution (CLSI). It counts as cell-based. Conditions: Pseudomonas aeruginosa. The source says: (§1) Staphylococcus aureus ATCC25923 and Escherichia coli ATCC25922 were obtained from the American Type Culture Collection (ATCC, Manassas, VA, USA). The Methicillin-resistant S. aureus (MRSA) clinical isolate MRSA-4, previously confirmed as mecA-positive and characterized for its antibiotic resistance profile ([Sun et al., 2023]), was used in this study. Staphylococcus epidermidis (GDMCC 1.143), Enterococcus faecalis (GDMCC 1.164), and Salmonella enterica subsp. enterica (GDMCC 1.1114) were obtained from the Guangdong Microbial Culture Collection Center (GDMCC, Guangzhou, China). The Pseudomonas aeruginosa PA14 strain was kindly provided by Professor Min Wu (Southwest Medical University, China). All bacterial strains were routinely cultured in Mueller-Hinton broth (MHB) or Luria-Bertani (LB) broth medium at 37°C with shaking at 200 rpm. Vancomycin was purchased from Solarbio Science & Technology Co., Ltd. (Beijing, China), and oxacillin was obtained from Taiji Group Hengsheng Pharmaceutical Co., Ltd. (Chengdu, China). The polyclonal rabbit primary anti-body to FtsZ was purchased from Abcam PLC (Cambridge, UK). Alexa488-conjugated goat anti-rabbit IgG was purchased from ZSGB-BIO Biotechnology (Beijing, China). DAPI staining solution was purchased from Beyotime Biotechnology (Shanghai, China).
(§2) The minimum inhibitory concentrations (MICs) of the test compounds (AA, MA, and UA) were determined using the standard broth microdilution method in accordance with the Clinical and Laboratory Standards Institute (CLSI) guidelines ([Humphries et al., 2021]). Bacteria were cultured in MHB or LB broth at 37°C with shaking (200 rpm) to the logarithmic phase, then diluted to a final density of 1 × 10^6 CFU/mL. Test compounds (dissolved in DMSO) and positive controls (vancomycin and oxacillin) were diluted in MHB and serially twofold diluted in 96-well plates. Each well was inoculated with 100 μL of bacterial suspension (1 × 10^6 CFU/mL), yielding a final bacterial density of 5 × 10^5 CFU/mL and a total volume of 200 μL. The final concentrations tested were 128 to 1 μg/mL for AA, MA, and UA; 16 to 0.5 μg/mL for vancomycin; and 64 to 0.0625 μg/mL for oxacillin. DMSO was used as a solvent control. Plates were incubated statically at 37°C for 18–24 h. After incubation, the OD600 was measured using a microplate reader (SpectraMax i3x, Molecular Devices, CA, USA). The MIC was defined as the lowest compound concentration that caused ≥ 90% inhibition of bacterial growth compared to the drug-free growth control. All tests were performed in three independent biological replicates.
(§3) Following the isolation and identification of AA, MA, and UA from ECPL, we evaluated their antibacterial activity and spectrum. The MICs of the compounds were determined against MRSA-4, S. aureus ATCC25923, S. epidermidis, and E. faecalis (Gram-positive), as well as P. aeruginosa PA14, E. coli ATCC25922, and S. enterica subsp. Enterica (Gram-negative) using the standard broth microdilution method in accordance with CLSI guidelines ([Humphries et al., 2021]).
Background: Broth dilution looks for growth in wells or tubes with falling amounts of substance.

The test system of assay [1] is S. aureus ATCC25923. Kind of assay: MIC, broth microdilution (CLSI). It counts as cell-based. Particulars: Staphylococcus aureus.
From the text: as §1, §2, §3

Assay [2] deals with S. aureus ATCC25923. Kind of assay: SEM analysis, cell long axis. Particulars: 2 × MIC, 2 h, mean ± SD, PBS control 0.52 ± 0.05. It counts as cell-based, Staphylococcus aureus. As to the method: Scanning electron microscopy (SEM) was used to observe the morphological changes in bacterial cells treated with the isolated compounds. S. aureus ATCC 25923 and MRSA-4 were grown in MHB to mid-log phase (OD600 = 0.4–0.6) as previously described. The bacteria cultures were treated with AA, MA, or UA at 2 × MIC for 2 h at 37°C with shaking at 150 rpm. Untreated cultures (PBS group) served as the growth control. After incubation, bacterial cells were harvested by centrifugation and washed three times with PBS (pH 7.2). Coverslips (8 mm diameter) were cleaned with absolute ethanol under ultrasonication, air-dried, immersed in 0.1% (w/v) chitosan solution (dissolved in 1% acetic acid) for 5 s, and air-dried again at room temperature ([Su et al., 2022]). A 25 μL aliquot of the washed bacterial suspension was added to each coverslip and allowed to adhere for 1 h at room temperature. Adhered cells were fixed with 1 mL of 2.5% (v/v) glutaraldehyde at 4°C overnight. Fixed samples were rinsed 2–3 times with PBS (5 min per rinse), then dehydrated through a graded ethanol series: 50, 70, and 90% ethanol (each once for 5 min), followed by 100% ethanol (three times for 5 min each). After dehydration, samples were air-dried overnight at room temperature. SEM imaging was performed using an EVO 10 scanning electron microscope (Zeiss, Jena, Germany). Cell long-axis statistical analysis was conducted using ImageJ software (Version 1.42q, National Institutes of Health, MD, USA).
Having established the antibacterial activity of AA, MA, and UA, we next examined their effects on bacterial morphology. We employed SEM to examine the alterations induced by these compounds in S. aureus ATCC25923 and MRSA-4. Bacterial cultures were treated with AA, MA, or UA at 2 × MIC for 2 h, while untreated (PBS group) cultures served as negative controls. […] In PBS groups, both S. aureus ATCC25923 and MRSA-4 maintained typical spherical morphology with smooth and intact surfaces.

The test system of a further assay is MRSA-4. Description: SIM analysis of Z-ring assembly (FtsZ immunostaining). It counts as cell-based, Methicillin-resistant S. aureus. Conditions: 1 × MIC, 4 h. As to the method:
MRSA-4 was cultured in MHB at 37°C to mid-logarithmic phase and subsequently treated with AA, MA, or UA at concentration of 1 × MIC, or with PBS as a control, for 4 h at 37°C. Following treatment, cells were harvested by centrifugation, washed once with PBS, and fixed with 4% (w/v) paraformaldehyde in PBS for 15 min at room temperature. Fixed cells were then washed twice with PBS. The pellets were resuspended in 90 μL GTE buffer (50 mM glucose, 25 mM Tris–HCl, pH 8.0, 10 mM EDTA) containing 10 μL lysozyme (3 mg/mL) and incubated for 3 min at room temperature. The suspension was applied onto poly-L-lysine-coated glass slides and allowed to adhere. After removing excess liquid, the slides were blocked with PBS containing 2% (w/v) BSA and 0.1% (v/v) Tween-20 for 15 min. Slides were incubated overnight at 4°C with polyclonal rabbit anti-FtsZ primary antibody, followed by three washes with PBST (PBS containing 0.1% Tween-20). Alexa Fluor 488-conjugated goat anti-rabbit IgG as the secondary antibody was then applied and incubated for 1 h at room temperature in the dark. After washing, nuclei were stained with DAPI for 3–5 min, followed by 2–3 times PBS washes to remove excess stain. Coverslips were mounted with 50% (v/v) glycerol in PBS and sealed with nail polish. Z-ring structures were visualized using structured illumination microscopy (N-SIM S, Nikon, Tokyo, Japan).
Given that septum formation is orchestrated by the FtsZ-based Z-ring, we next examined whether AA, MA, and UA affect Z-ring assembly. Structured illumination microscopy (SIM) was employed to visualize FtsZ localization in MRSA-4 cells treated with each compound at 1 × MIC for 4 h.

Where [3] appears, read: P. aeruginosa PA14, ≥ 90% growth inhibition, 18–24 h, read-out: MIC.
Setting [4] is: S. aureus ATCC25923, ≥ 90% growth inhibition, 18–24 h, read-out: MIC.

Each structure is given as a SMILES string. Values after ≈ are worked out from the molar mass of the structure shown. Where two headings read alike, the source gives them in different places.

From article PMC12213745, “Compounds from Cyclocarya paliurus leaves inhibit binary division of methicillin-resistant Staphylococcus aureus by disrupting FtsZ dynamic” (Frontiers in Microbiology, 2025) come the findings set out here.

Turning to `C[C@H]1[C@H](C)CC[C@]2(C(=O)O)CC[C@]3(C)C(=CC[C@@H]4[C@@]5(C)C[C@@H](O)[C@H](O)[C@@](C)(CO)[C@@H]5CC[C@]43C)[C@H]12` [AA, asiatic acid], the MIC with P. aeruginosa PA14 (setting [3]) is more than 128 µg/mL; in the assay on S. aureus ATCC25923 [1] (setting [4]), 32 µg/mL (≈ 65.5 µM). Further, the “length of long axis of cells” value with S. aureus ATCC25923 [2] came to 0.78 ± 0.06 μm. Besides, the “FtsZ localization / Z-ring formation (SIM)” value with MRSA-4 was “aberrant FtsZ localization”.

Consider `CC1(C)CC[C@]2(C(=O)O)CC[C@]3(C)C(=CC[C@@H]4[C@@]5(C)C[C@@H](O)[C@H](O)C(C)(C)[C@@H]5CC[C@]43C)[C@@H]2C1` [MA, maslinic acid], for which the MIC is more than 128 µg/mL in the assay with P. aeruginosa PA14 (PA14) and 32 µg/mL (≈ 67.7 µM) with S. aureus ATCC25923 [1] (ATCC25923). The “length of long axis of cells” value with S. aureus ATCC25923 [2] was 0.78 ± 0.07 μm. Besides, the “FtsZ localization / Z-ring formation (SIM)” value in the assay with MRSA-4 was “aberrant FtsZ localization”.

On to `C[C@H]1[C@H](C)CC[C@]2(C(=O)O)CC[C@]3(C)C(=CC[C@@H]4[C@@]5(C)CC[C@H](O)C(C)(C)[C@@H]5CC[C@]43C)[C@H]12` [UA, ursolic acid], for which the MIC in the assay with P. aeruginosa PA14 (setting [3]) was more than 128 µg/mL; in the assay on S. aureus ATCC25923 [1] (setting [4]), 16 µg/mL (≈ 35 µM). Moreover, the “length of long axis of cells” value with S. aureus ATCC25923 [2] turned out to be 0.75 ± 0.05 μm. The “FtsZ localization / Z-ring formation (SIM)” value in the assay with MRSA-4 is listed as “aberrant FtsZ localization”.

Usually MIC stands for the least concentration at which growth counts as inhibited.
